Results on 4 compounds are retold here after US5096898A, “Bile acid unsaturated derivatives and pharmaceutical compositions containing them” (Giuliani S.p.A., priority 1990, dated 1992).

Molecules are shown by their SMILES. Values after ≈ are worked out from the molar mass of the structure shown. “Also recorded” adds a separate entry of the source. Like-named read-outs stand apart in the source and are kept apart here.

Data set [1] can be described thus: Physico-chemical characteristics (Table 1). It is filed as physicochemical. Also on record: Critical micellar concentration (CMC): unit not given here. The following applies: for chromatographic logP: c18 hplc.
A short description of data set [2]: Effect on bile flow and bile lipid secretion. The format is in vivo, rat. The following applies: for SMAB (maximum secretion) / SMPL (maximum bile lipid secretion) / SMVo = maximum bile flow / SMXOL (maximum bile lipid secretion): intravenous, 6 μmoles/min/kg during 1 hour (stated for TOL-UDCA). As for the experimental part:
(§1) Trans 3α,7β-dihydroxy-5β-24-cholen-27-oic acid (TOL-UDCA) was studied compared with ursodeoxycholic acid and the glycine and taurine conjugated thereof also in the following pharmacological tests:
effects on the secretion of bile, bile acids, cholesterol and phospholipids.
(§2) TOL-UDCA was administered to rat by intravenous and intraduodenal routes at a dose of 6 μmoles/min/kg during 1 hour.
SMVo = maximum bile flow
SM = maximum bile lipid secretion

A short description of data set [3]: Hepatic absorption, metabolism and biliary secretion, intravenous. It is filed as in vivo. The following applies: rat. As for the experimental part:
as §1
hepatic and intestinal metabolism (in vivo and in vitro)
hepatic and intestinal absorption
as §2

The mark [4] stands for this setting: read-out: Retention times with C18-HPLC (K') (converted).

In the case of `C[C@H](CCC(=O)NCC(=O)O)[C@H]1CC[C@H]2[C@@H]3[C@@H](O)C[C@@H]4C[C@H](O)CC[C@]4(C)[C@H]3CC[C@]12C` [G-UDCA], in data set [1], the “Critical micellar concentration (CMC)” value came out at 12, the pKa was 3.9 and the solubility came out at 3 µM (≈ 1.35 µg/mL). In data set [1] (setting [4]), the chromatographic logP was 0.0253. Besides, in data set [2], the “SMAB (maximum secretion)” value is 2,10 μmol/min/kg, the “SMPL (maximum bile lipid secretion)” value is 0,39 μmol/min/kg, the “SMVo = maximum bile flow” value was found to be 2.4 mL/h/kg and the “SMXOL (maximum bile lipid secretion)” value was 0,028 μmol/min/kg.
As to `C[C@H](CCC(=O)NCCS(=O)(=O)O)[C@H]1CC[C@H]2[C@@H]3[C@@H](O)C[C@@H]4C[C@H](O)CC[C@]4(C)[C@H]3CC[C@]12C` [T-UDCA], the “Critical micellar concentration (CMC)” value in data set [1] was found to be 8. For the same compound, the chromatographic logP in data set [1] (setting [4]) was -0.00877. In addition, in data set [1] (read-out: pKa), the pKa is 2. Also, in data set [2], the “SMAB (maximum secretion)” value was 2,40 μmol/min/kg, the “SMPL (maximum bile lipid secretion)” value is given as 0,18 μmol/min/kg, the “SMVo = maximum bile flow” value was 2.1 mL/h/kg and the “SMXOL (maximum bile lipid secretion)” value was 0,014 μmol/min/kg.
With `C[C@H](CC/C=C/CC(=O)O)[C@H]1CC[C@H]2[C@@H]3[C@@H](O)C[C@@H]4C[C@H](O)CC[C@]4(C)[C@H]3CC[C@]12C` [TOL-UDCA, Trans-3α,7β-dihydroxy-5β-24-cholen-27-oic acid], in data set [1], the “Critical micellar concentration (CMC)” value was found to be 5, the pKa was found to be 5.02, the solubility is 10 µM (≈ 4.33 µg/mL) and the chromatographic logP is 0.96. Besides, the “bile flow / choleretic effect (in words)” value in data set [2] (compared with UDCA natural analogs and conjugated forms) is “increases bile flow and this effect is stronger than the one of UDCA natural analogs and of the conjugated forms thereof; also recorded: strong choleretic effect after intravenous or intraduodenal administrations, which effect is higher than that of UDCA”. Moreover, in data set [2], the “SMAB (maximum secretion)” value is 1,02 μmol/min/kg, the “SMPL (maximum bile lipid secretion)” value is 0,12 μmol/min/kg, the “SMVo = maximum bile flow” value came out at 5.4 mL/h/kg and the “SMXOL (maximum bile lipid secretion)” value is 0,020 μmol/min/kg. For the same compound, the “kinetic of recovery in the bile” value in data set [3] (intravenous, 6 μmoles/min/kg during 1 hour) is “recovered in the bile with a slow kinetic”. In data set [3] (in vivo), the “accumulation in the hepatic cells” value was “accumulates in the hepatic cells”, the “disappearance from the bile” value is on record as “disappears from the bile with a slow kinetic” and the “presence in bile 2 hours after end of infusion” value is given as “a noticeable amount of this bile acid is still present 2 hours after”.
Regarding `C[C@H](CCC(=O)O)[C@H]1CC[C@H]2[C@@H]3[C@@H](O)C[C@@H]4C[C@H](O)CC[C@]4(C)[C@H]3CC[C@]12C` [UDCA, ursodeoxycholic acid], the “Critical micellar concentration (CMC)” value in data set [1] is listed as 19. Further, in data set [1] (setting [4]), the chromatographic logP was 0.563. Moreover, in data set [1] (read-out: Solubility), the solubility came out at 9 µM (≈ 3.53 µg/mL). Moreover, the pKa in data set [1] (read-out: pKa) was determined as 5.06. In addition, in data set [2], the “SMAB (maximum secretion)” value is 3,02 μmol/min/kg, the “SMPL (maximum bile lipid secretion)” value is 0,22 μmol/min/kg, the “SMVo = maximum bile flow” value turned out to be 3.6 mL/h/kg and the “SMXOL (maximum bile lipid secretion)” value was 0,022 μmol/min/kg.

The pKa is the negative logarithm of the acid dissociation constant. What is called solubility is the dissolved amount per volume that the medium holds.
